What was measured:
BACE1 = target: T1, BACE1 (Homo sapiens, UniProt P56817); assay: Cellular Aβ-lowering assay (Abeta 40 AlphaLISA, HEK293 APP cells); assay type: cell-based; conditions: 18-20 hrs incubation, Aβ40 in culture supernatant, read-out: BACE1 cell act. Aβ40 IC50
T1 construct: endogenous in cells; host or cells: HEK293 APP cells (HEK293 expressing APP)
Experimental: Cellular Aβ-lowering Assay:
The Abeta 40 AlphaLISA Assay can be used. The HEK293 APP cells were seeded in 96 well Microtiter plates in cell culture medium (Iscove's, plus 10% (v/v) fetal bovine serum, penicillin/streptomycin) to about 80% confluency and the compounds were added at a 3× concentration in ⅓ volume of culture medium (final DMSO concentration was kept at 1% v/v). After 18-20 hrs incubation at 37° C. and 5% CO2 in a humidified incubator, the culture supernatants were harvested for the determination of Aβ40 concentrations using Perkin-Elmer Human Amyloid beta 1-40 (high specificity) Kit (Cat# AL275C).
In a Perkin-Elmer White Optiplate-384 (Cat# 6007290), 2 ul culture supernatants were combined with 2 μl of a 10× AlphaLISA Anti-hAβAcceptor beads+Biotinylated Antibody Anti-Aβ1-40 Mix (50 μg/mL/5 nM). After 1 hour room temperature incubation, 16 μl of a 1.25 × preparation of Streptavidin (SA) Donor beads (25 μg/mL) were added and incubated for 30 minutes in the Dark. Light Emission at 615 nm was then recorded using EnVision-Alpha Reader. Levels of Aβ 40 in the culture supernatants were calculated as percentage of maximum signal (cells treated with 1% DMSO without inhibitor). The IC50 values were calculated using the Excel XLfit software.

[1] = tested on: Aβ40 in brain of wild-type mice; assay: Lowering of Aβ40 in brain of wild-type mice; assay type: in vivo, mouse; conditions: female C57Bl/6J mice, 30 mg/kg per os, 4 h after dose, brain Aβ40 as percentage of the vehicle group
Experimental: Lowering of Aβ40 in Brain of Wild-Type Mice:
Animals and Housing Conditions. Animals were maintained in a 12/12 h light/dark cycle, with lights starting at 6 a.m., and experiments were conducted during the light phase. Animal housing and experimental procedures were in line with ethical and legal guidelines and were authorized by local veterinary authorities.
Experiment. Female C57B1/6J mice were treated with a dose of 30 mg/kg of the compounds, 3-4animals per treatment group. The test compound was dissolved in 5% EtOH, 10% Solutol, and was applied per os at 10 mL/kg. After 4 h, the animals were sacrificed and brain and plasma were collected. The brain was cut into halves and immediately frozen on dry ice. Brain was used for measurement of Aβ40 and plasma was used for determination of compound exposure. […] Brain tissue was homogenized in 2% DEA buffer in a Roche MagnaLyser (20″, 4000 rpm) and subsequently centrifuged for 1 h at 100000 g. DEA was reduced to 0.2% in 50 mM NaCl and one-half of the DEA lysate was passed over an Oasis Solid phase extraction plate (Waters; cat. no. 186000679), which had been activated with MeOH and equilibrated in dH2O (1 mL each). After washes in 10% and 30% MeOH (1 mL each), the Aβ-peptides were eluted in 0.8 mL of 2% NH4OH in 90% MeOH. The eluate was dried over a N2 flow, and the dried sample was reconstituted in 30 μL of AlphaLISA assay buffer. Aβ40 was determined by an AlphaLISA assay (Perkin-Elmer). In a white 96-well, half area microplate (Perkin-Elmer cat. no. 6005561), 20 μL of the reconstituted sample were mixed with 5 μL of biotinylated BAP-24 (specific for C-terminus of Aβ40) (Brockhaus, M.; Grunberg, J.; Rohrig, S.; Loetscher, H.; Wittenburg, N.; Baumeister, R.; Jacobsen, H.; Haass, C. Caspasemediated cleavage is not required for the activity of presenilins in amyloidogenesis and NOTCH signaling. NeuroReport 1998, 9, 1481-1486.) stock=4.4 mg/mL, f.c.5.5 μg/mL), and 5 μL 252Q6 acceptor beads (252Q6 antibody, Invitrogen AMB0062) had been previously conjugated with AlphaLISA Acceptor beads (Perkin-Elmer cat. no. 6772002); final dilution 1:500). The mix was incubated for 1 h at RT in the dark. Then 20 μL of Streptavin-coated Donor Beads (Perkin-Elmer cat. no. 6760002, final dilution 1:125) were added and this final mix was incubated in the dark for another 30 min at RT before RFU was measured in an AlphaScreen Reader (Perkin-Elmer Envision 2104). The value obtained for Aβ40 in the treated animals was related to the value in the vehicle group and is given in %. Alternatively a commercial ELISA was used for Aβ40 determination (Wako ELISA: (“Human/Rat β Amyloid (40) ELISA kit Wako II”; cat nr. 294-64701) following the manufacture's instruction. Also here the Aβ-lowering efficacy was calculated as percentage of the vehicle group.

T1 sequence (P56817 46-501): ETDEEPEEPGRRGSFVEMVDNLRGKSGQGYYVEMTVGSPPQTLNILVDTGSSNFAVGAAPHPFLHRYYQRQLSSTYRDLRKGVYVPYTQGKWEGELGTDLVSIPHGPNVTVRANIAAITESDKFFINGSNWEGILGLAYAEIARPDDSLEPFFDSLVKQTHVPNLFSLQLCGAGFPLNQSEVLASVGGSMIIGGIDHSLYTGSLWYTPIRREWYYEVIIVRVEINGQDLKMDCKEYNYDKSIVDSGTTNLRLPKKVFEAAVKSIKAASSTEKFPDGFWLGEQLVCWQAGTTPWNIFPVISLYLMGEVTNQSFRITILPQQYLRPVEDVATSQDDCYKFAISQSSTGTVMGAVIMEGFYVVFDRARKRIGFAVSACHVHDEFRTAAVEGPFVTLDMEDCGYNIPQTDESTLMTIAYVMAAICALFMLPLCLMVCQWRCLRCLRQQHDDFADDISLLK

Row | IC50 (BACE1) | Compound | Aβ40 (wt mice, brain) ([1]; 30 mg/kg) | Aβ40 (wt mice, brain) [1]
1 | 2.9 nM | Cc1cc(C#N)cnc1C(=O)Nc1ccc(F)c(C2(C)CS3(=O)=NCCCC3(C)C(N)=N2)n1 (single isomer, unassigned) [Example 10] | 89% | 
2 | 0.2 nM | Cc1cc(C#N)cnc1C(=O)Nc1ccc(F)c(C2(C)CS3(=O)=NCCCCC3(C)C(N)=N2)n1 (single isomer, unassigned) [Example 2, N-[6-(6-amino-5a,8-dimethyl-10-oxido-3,4,5,5a,8,9-hexahydro-2H-10λ^4-[1,4]thiazino[2,1-g][1,2]thiazepin-8-yl)-5-fluoropyridin-2-yl]-5-cyano-3-methylpyridine-2-carboxamide] | 48% | 
3 | > 200 nM | Cc1cc(C#N)cnc1C(=O)Nc1ccc(F)c(C2(CF)CS3(=O)=NCCCC3(C)C(N)=N2)n1 (single isomer, unassigned) [Example 8] |  | 
4 | 46 nM | CC12CCCN=S1(=O)CC(CF)(c1nc(NC(=O)c3ccc(OCC(F)(F)C(F)F)cn3)ccc1F)N=C2N (single isomer, unassigned) [Example 7] |  | 
5 | 0.8 nM | Cc1cc(C#N)cnc1C(=O)Nc1ccc(F)c(C2(CF)CS3(=O)=NCCCC3(C)C(N)=N2)n1 (single isomer, unassigned) [Example 5] | 88% | 
6 | 0.4 nM | Cc1cc(C#N)cnc1C(=O)Nc1ccc(F)c(C2(C)CS3(=O)=NCCCCC3(C)C(N)=N2)n1 (single isomer, unassigned) [Example 4, N-[6-(6-amino-5a,8-dimethyl-10-oxido-3,4,5,5a,8,9-hexahydro-2H-10λ^4-[1,4]thiazino[2,1-g][1,2]thiazepin-8-yl)-5-fluoropyridin-2-yl]-5-cyano-3-methylpyridine-2-carboxamide] | 83% | 
7 | 320 nM | CC1(c2nc(NC(=O)c3ccc(OCC(F)(F)C(F)F)cn3)ccc2F)CS2(=O)=NCCCC2(C)C(N)=N1 (single isomer, unassigned) [Example 12] |  | 77%
8 | 13.8 nM | Cc1cc(C#N)cnc1C(=O)Nc1ccc(F)c(C2(C)CS3(=O)=NCCCCC3(C)C(N)=N2)n1 (single isomer, unassigned) [Example 3, N-[6-(6-amino-5a,8-dimethyl-10-oxido-3,4,5,5a,8,9-hexahydro-2H-10λ^4-[1,4]thiazino[2,1-g][1,2]thiazepin-8-yl)-5-fluoropyridin-2-yl]-5-cyano-3-methylpyridine-2-carboxamide] | 95% | 
9 | 98 nM | Cc1cc(C#N)cnc1C(=O)Nc1ccc(F)c(C2(CF)CS3(=O)=NCCCC3(C)C(N)=N2)n1 (single isomer, unassigned) [Example 9] | 113% | 
10 | 0.2 nM | Cc1cc(C#N)cnc1C(=O)Nc1ccc(F)c(C2(C)CS3(=O)=NCCCC3(C)C(N)=N2)n1 (single isomer, unassigned) [Example 1, N-[6-(5-amino-4a,7-dimethyl-9-oxido-2,3,4,4a,7,8-hexahydro-9λ^4-[1,4]thiazino[2,1-f][1,2]thiazin-7-yl)-5-fluoropyridin-2-yl]-5-cyano-3-methylpyridine-2-carboxamide] | 62% | 
11 | 218 nM | Cc1cc(C#N)cnc1C(=O)Nc1ccc(F)c(C2(CF)CS3(=O)=NCCCC3(C)C(N)=N2)n1 (single isomer, unassigned) [Example 6] |  | 
12 | 2.3 nM | CC1(c2nc(NC(=O)c3ncc(C#N)cc3Cl)ccc2F)CS2(=O)=NCCCC2(C)C(N)=N1 (single isomer, unassigned) [Example 11] |  | 90%

From patent US9920072B2, “BACE1 inhibitors” (Hoffmann-La Roche Inc., priority 2014, dated 2018)
